Patent publication US12012410B2, “Substituted pyrazolo[1,5-a]pyrazines for spinal muscular atrophy” (REBORNA BIOSCIENCES, INC., priority 2018, dated 2024)
Where a name gives a salt, the structure may show the parent alone.

tested on: FL-SMN mRNA (SMN transcript containing exons 7 and 8); test: Live-cell assay to measure changes in FL-SMN mRNA levels (qPCR) after exposure to the compounds; format: cell-based, human; details: fibroblasts derived from patients SMA (GM03813); 24 hours incubation
Description: In this example, each test compound was administered to cultured cells, and changes in the expression levels of mRNA transcripts of SMN, i.e., FL-SMN containing exons 7 and 8 and Delta7 with exon 7 skipped, were examined using PCR.
Fibroblasts derived from patients SMA (GM03813) (Coriell Cell Repositories) were cultured with passages using DMEM (High Glucose) (Life Technologies) supplemented with 10% FBS (Life Technologies). Cells were seeded in tissue-culture-treated 96-well plates (Corning) at 1.5 or 0.5×10^4 cells/well in 100 μL of medium. The cells were incubated in 5% CO2 for 6 hours, and the medium was replaced with 100 μL of medium (with DMSO, 0.1% final concentration) containing each of the compounds given in the Examples. After additional incubation for 24 hours under the same conditions, the cells were washed once with D-PBS(—) (Wako) and 25 μL/well of the lysis solution (with gDNA Remove) contained in the SuperPrep (registered trademark) Cell Lysis & RT Kit for qPCR (Toyobo life science) was added according to the manufacturer's instructions so that the cells were lysed and the genomic DNA was degraded. Furthermore, 5 μL of the STOP solution (with RNase Inhibitor) contained in the kit was added to provide RNA-containing solutions. Six microliters of the RNA-containing solutions were each mixed with 14 μL of a reverse transcription solution containing transcriptase together with dNTP, random primers and an oligodT primer. Reverse transcription was performed at 37° C. (15 min), 50° C. (5 min), and 98° C. (5 min), to give total cDNAs. The total cDNAs were diluted 30-fold with Ultra-pure water (Invitrogen) to measure the expression levels of FL-SMN, delta7, and GAPDH. For quantitative PCR (qPCR), a PCR solution was prepared according to the instructions of the manufacturer of the THUNDERBIRD (registered trademark) Probe qPCR Mix (Toyobo life science). Five microliters of the diluted total cDNA solutions and oligo DNA standard solutions, each containing either 001-Standard FL-SMN (SEQ ID NO. 1) or 002-Standard delta7 (SEQ ID NO. 2), were each mixed with 10 μL of each of the PCR solutions containing a qPCR probe, primers, and PCR enzyme. […] The oligoDNA standard solutions were prepared as those containing either of 5×10^8, 5×10^7, 5×10^6, 5×10^5, 5×10^4, 5×10^3, 5×10^2, 5×10, 5, or 0 copies. For the oligo DNA standards, primers, and probes, oligonucleotides synthesized by Integrated DNA Technologies, Inc. (IDT) were used. […] FIGS. 3B and 3D show their detection mechanisms. The final concentrations of the primers and probes added were 0.4 μM and 0.15 μM, respectively. The qPCR was performed using the following conditions on a ViiA7 instrument (Applied Biosystems): first stage: 95° C. (1 min)→second stage: 95° C. (15 sec)→third stage: 60° C. (1 min)→40 repeated cycles of the second and third stages. The GAPDH mRNA was used as the internal control, and the commercially available 20×gene expression PCR assay (Life Technologies, 4326317E, Hs99999905_ml) and Standard GAPDH (SEQ ID NO. 7) (see FIG. 1) was used to determine the number of copies of this gene. The measurement values obtained for the samples to be measured were standardized against the respective value obtained for GAPDH.
Using the above-mentioned assays, the activities of the compounds of the Examples were evaluated. Specifically, the percentages of the FL-SMN and delta7 values obtained using DMSO without the compounds and standardized against GAPDH were set as 100% and those of the FL-SMN and delta7 values obtained at the time of administration of the compounds and standardized against GAPDH were calculated. […]

| Structure (SMILES) | Percentage of increase (FL-SMN mRNA standardized against GAPDH, DMSO control set as 100%) |
| --- | --- |
| Cc1cn2nc(-c3nc4cc(F)c(C5CCN(C)CC5)cc4c(=O)[nH]3)cc2c(C)n1 [Example 1, 2-(4,6-Dimethylpyrazolo[1,5-a]pyrazin-2-yl)-7-fluoro-6-(1-methylpiperidin-4-yl)quinazolin-4(3H)-one] | **** (equal to or higher than 180%) |
| Cc1cn2nc(-c3nc4ccc(C5CCN(C)CC5)cc4c(=O)[nH]3)cc2c(C)n1 [Example 2, 2-(4,6-Dimethylpyrazolo[1,5-a]pyrazin-2-yl)-6-(1-methylpiperidin-4-yl)quinazolin-4(3H)-one] | **** (equal to or higher than 180%) |
| Cc1cn2nc(-c3nc4c(F)cc(C5CCN(C)CC5)cc4c(=O)[nH]3)cc2c(C)n1 [Example 3, 2-(4,6-Dimethylpyrazolo[1,5-α]pyrazin-2-yl)-8-fluoro-6-(1-methylpiperidin-4-yl)quinazolin-4(3H)-one] | **** (equal to or higher than 180%) |
| Cc1cn2nc(-c3nc4ccc(C5CCN(C)CC5)c(F)c4c(=O)[nH]3)cc2c(C)n1 [Example 4, 2-(4,6-Dimethylpyrazolo[1,5-α]pyrazin-2-yl)-5-fluoro-6-(1-methylpiperidin-4-yl)quinazolin-4(3H)-one] | **** (equal to or higher than 180%) |
| CCc1nc(C)cn2nc(-c3nc4ccc(N5CCN(C)CC5)cc4c(=O)[nH]3)cc12 [Example 5, 2-(4-Ethyl-6-methylpyrazolo[1,5-α]pyrazin-2-yl)-6-(4-methylpiperazin-1-yl)quinazolin-4(3H)-one] | *** (equal to or higher than 150% but lower than 180%) |
| Cc1cn2nc(-c3nc4ccc(N5CCN(C)CC5)cc4c(=O)[nH]3)cc2c(C)n1 [Example 6, 2-(4,6-Dimethylpyrazolo[1,5-α]pyrazin-2-yl)-6-(4-methylpiperazin-1-yl)quinazolin-4(3H)-one dihydrochloride] | **** (equal to or higher than 180%) |
| Cc1cn2nc(-c3nc4cc(F)c(N5CCN(C)CC5)cc4c(=O)[nH]3)cc2c(C)n1 [Example 7, 2-(4,6-Dimethylpyrazolo[1,5-α]pyrazin-2-yl)-7-fluoro-6-(4-methylpiperazin-1-yl)quinazolin-4(3H)-one] | *** (equal to or higher than 150% but lower than 180%) |
| Cc1cn2cc(-c3ccc4nc(C5CCN(C)CC5)[nH]c(=O)c4c3)ccc2n1 [Example 9, 6-(2-Methylimidazo[1,2-α]pyridin-6-yl)-2-(1-methylpiperidin-4-yl)quinazolin-4(3H)-one] | **** (equal to or higher than 180%) |
| Cc1cn2cc(-c3ccc4nc(C5CCN(C)CC5)[nH]c(=O)c4c3)cc(F)c2n1 [Example 10, 6-(8-Fluoro-2-methylimidazo[1,2-α]pyridin-6-yl)-2-(1-methylpiperidin-4-yl)quinazolin-4(3H)-one] | **** (equal to or higher than 180%) |
| Cc1cc2oc(-c3nc4ccc(N5CCN(C)CC5)cc4c(=O)[nH]3)cc2c(C)n1 [Example 11, 2-(4,6-Dimethylfuro[3,2-c]pyridin-2-yl)-6-(4-methylpiperazin-1-yl)quinazolin-4(3H)-one] | *** (equal to or higher than 150% but lower than 180%) |
| CCN1CCN(c2ccc3nc(-c4cc5c(C)nc(C)cn5n4)[nH]c(=O)c3c2)CC1 [Example 12, 2-(4,6-Dimethylpyrazolo[1,5-a]pyrazin-2-yl)-6-(4-ethylpiperazin-1-yl)quinazolin-4(3H)-one] | **** (equal to or higher than 180%) |
| Cc1nc2ccc(-c3ccc4nc(C5CCN(C)CC5)[nH]c(=O)c4c3)cc2o1 [Example 13, 6-(2-Methyl-1,3-benzoxazol-6-yl)-2-(1-methylpiperidin-4-yl)quinazolin-4(3H)-one] | **** (equal to or higher than 180%) |
| Cc1nc2ccc(-c3ccc4nc(C5CCN(C)CC5)[nH]c(=O)c4c3)cc2s1 [Example 14, 6-(2-Methyl-1,3-benzothiazol-6-yl)-2-(1-methylpiperidin-4-yl)quinazolin-4(3H)-one] | *** (equal to or higher than 150% but lower than 180%) |
| Cc1cn2cc(-c3ccc4nc(C5CCN(C)CC5)[nH]c(=O)c4c3)cc2cn1 [Example 15, 2-(1-Methylpiperidin-4-yl)-6-(3-methylpyrrolo[1,2-α]pyrazin-7-yl)quinazolin-4(3H)-one] | **** (equal to or higher than 180%) |
| Cc1cn2nc(-c3nc4ccc(N5CCNCC5)cc4c(=O)[nH]3)cc2c(C)n1 [Example 16, 2-(4,6-Dimethylpyrazolo[1,5-α]pyrazin-2-yl)-6-(piperazin-1-yl)quinazolin-4(3H)-one dihydrochloride] | **** (equal to or higher than 180%) |
| Cc1cn2cc(-c3ccc4nc(C5CCN(C)CC5)[nH]c(=O)c4c3)cc(Cl)c2n1 [Example 17, 6-(8-Chloro-2-methylimidazo[1,2-α]pyridin-6-yl)-2-(1-methylpiperidin-4-yl)quinazolin-4(3H)-one] | *** (equal to or higher than 150% but lower than 180%) |
| Cc1nc2c(F)cc(-c3ccc4nc(C5CCN(C)CC5)[nH]c(=O)c4c3)cc2o1 [Example 18, 6-(4-Fluoro-2-methyl-1,3-benzoxazol-6-yl)-2-(1-methylpiperidin-4-yl)quinazolin-4(3H)-one] | **** (equal to or higher than 180%) |
| Cc1cn2cc(-c3cc(C)c4nc(C5CCN(C)CC5)[nH]c(=O)c4c3)ccc2n1 [Example 19, 8-Methyl-6-(2-methylimidazo[1,2-α]pyridin-6-yl)-2-(1-methylpiperidin-4-yl)quinazolin-4(3H)-one] | **** (equal to or higher than 180%) |
| Cc1cn2cc(-c3ccc4nc(C5CCN(C)CC5)[nH]c(=O)c4c3)cc2c(C)n1 [Example 20, 6-(1,3-Dimethylpyrrolo[1,2-α]pyrazin-7-yl)-2-(1-methylpiperidin-4-yl)quinazolin-4(3H)-one] | **** (equal to or higher than 180%) |
| Cc1cn2nc(-c3nc4c(C)cc(N5CCN(C)CC5)cc4c(=O)[nH]3)cc2c(C)n1 [Example 21, 2-(4,6-Dimethylpyrazolo[1,5-α]pyrazin-2-yl)-8-methyl-6-(4-methylpiperazin-1-yl)quinazolin-4(3H)-one] | **** (equal to or higher than 180%) |
| COc1cc(-c2ccc3nc(C4CCN(C)CC4)[nH]c(=O)c3c2)cn2cc(C)nc12 [Example 22, 6-(8-methoxy-2-methylimidazo[1,2-a]pyridine-6-yl)-2-(1-methylpiperidine-4-yl) kinazoline-4 (3H)-one] | **** (equal to or higher than 180%) |
| Cc1cn2cc(-c3ccc4nc(C5CCN(C)CC5)[nH]c(=O)c4c3)cc(C)c2n1 [Example 23, 6-(2,8-dimethylimidazo[1,2-a]pyridine-6-yl)-2-(1-methylpiperidin-4-yl) kinazoline-4 (3H)—one] | *** (equal to or higher than 150% but lower than 180%) |
